Drawing on article PMC4418667 (PLoS ONE, 2015), this text covers IC50 for three compounds.

Structures are written as SMILES.

One may read the IC50 as the point on the concentration scale where inhibition reaches its midpoint. Read a low IC50 as greater potency.

The target in the assay is T1, IKKβ (Homo sapiens, UniProt O14920).
T1 construct: gene IKBKB
T1 sequence (O14920 1-756): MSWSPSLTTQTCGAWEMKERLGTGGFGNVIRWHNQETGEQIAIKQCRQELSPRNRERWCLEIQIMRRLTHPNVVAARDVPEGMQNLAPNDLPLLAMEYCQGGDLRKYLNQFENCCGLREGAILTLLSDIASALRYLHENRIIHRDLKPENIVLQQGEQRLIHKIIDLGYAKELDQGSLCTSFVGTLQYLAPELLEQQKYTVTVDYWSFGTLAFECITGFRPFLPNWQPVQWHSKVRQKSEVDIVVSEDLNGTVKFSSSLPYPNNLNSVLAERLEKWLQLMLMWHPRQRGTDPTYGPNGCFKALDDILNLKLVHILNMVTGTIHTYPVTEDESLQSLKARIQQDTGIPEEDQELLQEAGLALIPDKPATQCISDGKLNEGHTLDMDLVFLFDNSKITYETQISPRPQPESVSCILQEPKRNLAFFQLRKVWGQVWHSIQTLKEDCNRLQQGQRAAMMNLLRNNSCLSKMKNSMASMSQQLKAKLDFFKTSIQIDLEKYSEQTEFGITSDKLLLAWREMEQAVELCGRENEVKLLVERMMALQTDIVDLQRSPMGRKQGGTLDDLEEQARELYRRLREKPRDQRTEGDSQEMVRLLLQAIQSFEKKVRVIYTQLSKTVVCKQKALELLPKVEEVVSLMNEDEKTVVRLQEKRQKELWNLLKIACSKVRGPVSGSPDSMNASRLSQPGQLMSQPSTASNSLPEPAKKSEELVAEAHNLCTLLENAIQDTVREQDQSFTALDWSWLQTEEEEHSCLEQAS
The assay can be described thus: biochemical.

Turning to `C[C@H]1[C@H](C)CC[C@]2(C(=O)O)CC[C@]3(C)C(=CC[C@@H]4[C@@]5(C)C[C@@H](O)[C@H](O)[C@@](C)(CO)[C@@H]5CC[C@]43C)[C@H]12` [AA, Asiatic Acid], the IC50 was found to be 95 µM. That is a double-digit micromolar value.
Under `C[C@H]1[C@H](C)CC[C@]2(C(=O)O)CC[C@]3(C)C(=CC[C@@H]4[C@@]5(C)C[C@@H](O)[C@H](O)C(C)(C)[C@@H]5CC[C@]43C)[C@H]12` [CA, Corosolic Acid] stands 89.3 µM; under `C[C@H]1[C@H](C)CC[C@]2(C(=O)O)CC[C@]3(C)C(=CC[C@@H]4[C@@]5(C)CC[C@H](O)C(C)(C)[C@@H]5CC[C@]43C)[C@H]12` [UA, Ursolic Acid], 69 µM.
